According to US9816227B2, “Textile products with herbal composition to render the fabrics insects repellent” (priority 2013, dated 2017):

Columns and labels:
[1] = system: desert locust (Schistocerca gregaria); details: in vivo; cited from earlier work
[2] = system: insects (larvae, pupae, adults); experiment: Exposure of insect larvae: inhibition of development to pupae and adults; format: in vivo
Source text: The possible effect of azadirachtin and other bioflavonoids including azadiradione, fraxinellone, nimbin, salannin, salannol, vepinin and vilasinin, the active components of the Neem seed oil extract, are inhibiting molting in larvae to pupae and adults of the most of the insects. Apart from delayed lethal action, effects on the pupation, adult emergence, and size of pupae or adults have been also observed. […] The compounds are characterized by their inhibition or prevention of formation of adult morphology. The effects on pupae (based on proportion of undeveloped individuals) and adults (based on incomplete development, attachment to puparia, or inability to fly) are dose-dependent.
No adults of insects are obtained at doses of 1.10, 10 and 100 μg/ml. These concentrations cause about 100% mortality of larvae or developed pupae. […] The treatments with 0.00001 and 0.001 μg/ml would result in an insignificant increase (0.8-1.6%) in the female wing length/width.

[3] = exposed to light and water; cited from earlier work

## C/C=C(\C)C(=O)O[C@H]1C[C@@H](OC(C)=O)[C@@]2(C(=O)OC)CO[C@H]3[C@@H](O)[C@@](C)([C@]45O[C@@]4(C)[C@H]4C[C@@H]5O[C@@H]5OC=C[C@@]54O)[C@H]4[C@]1(CO[C@]4(O)C(=O)OC)[C@@H]32 [azadirachtin, dimethyl (2aR,3S,4S,R,S,7aS,8S,10R,10aS,10bR)-10-(acetyloxy)-3,5-dihydroxy-4-[(1S,2S,6S,8S,9R,11S)-2-hydroxy-11-methyl-5,7,10-trioxatetracyclo[6.3.1.02,6.09,11]dodec-3-en-9-yl]-4-methyl-8-{[(2E)-2-methylbut-2-enoyl]oxy}octahydro-1H-furo[3′,4′:4,4a]naphtho[1,8-bc]furan-5,10a(8H)-dicarboxylate]
[1]
  feeding inhibitor activity: active
[2]; 0.00001 and 0.001 μg/ml, insignificant
  increase in the female wing length/width: 0.8-1.6%
[2]; 0.001, 0.01 and 0.1 μg/ml
  effect on wing dimensions of females: do not significantly affect
[2]; treatment of larvae with 0.00001 to 0.1 μg/ml
  pupal weights and dimensions, adult weights, wing dimensions, or interocular distances: significant reductions
[3]
  degradation time: ≤ 100 h
